The text below walks through data of patent US20200115357A1, “LIVER X RECEPTORS (LXR) MODULATORS” (Phenex-FXR GmbH, priority 2017, published 2020).

pEC50: −log10 of the molar value.

The target in series [1] is T1, LXRα ligand-binding domain (LBD) (Homo sapiens, UniProt Q13133).
T1 construct: expressed in transfected cells; host or cells: HEK293
T1 sequence (Q13133 155-447): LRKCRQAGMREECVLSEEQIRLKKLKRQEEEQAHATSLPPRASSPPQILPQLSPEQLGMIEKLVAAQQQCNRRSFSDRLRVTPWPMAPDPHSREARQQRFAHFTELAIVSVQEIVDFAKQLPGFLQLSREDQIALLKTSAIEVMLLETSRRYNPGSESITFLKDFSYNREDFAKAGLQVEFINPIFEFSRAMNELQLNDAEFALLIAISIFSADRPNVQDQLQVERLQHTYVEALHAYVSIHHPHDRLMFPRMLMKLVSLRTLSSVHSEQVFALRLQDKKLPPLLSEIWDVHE
Description: LXR Gal4 reporter transient transfection assay (M2H), Gal4α LBD. As to conditions: HEK293 cells; read-out: M2H Gal4α LBD activity range (EC50). It is filed as cell-based. An outline of the steps: (§1)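 Mammalian two-hybrid in HEK293 cells transiently transfected with LXRα/β full-length or LBD fused to NFkB activation domain, plus GAL4-DBD fusions of SRC1 coactivator or NCoR corepressor domains and a GAL4-responsive firefly luciferase reporter. Compounds added 4 h post-transfection (vehicle ≤0.2% DMSO), 16 h incubation; firefly luciferase normalized to Renilla.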

Series [2] addresses T2, LXRβ ligand-binding domain (LBD) (Homo sapiens, UniProt P55055, DUP175-175).
T2 construct: LXRβ (amino acids 156-461); expressed in transfected cells; host or cells: HEK293
T2 sequence (P55055 with tags, fused parts or gaps DUP175-175): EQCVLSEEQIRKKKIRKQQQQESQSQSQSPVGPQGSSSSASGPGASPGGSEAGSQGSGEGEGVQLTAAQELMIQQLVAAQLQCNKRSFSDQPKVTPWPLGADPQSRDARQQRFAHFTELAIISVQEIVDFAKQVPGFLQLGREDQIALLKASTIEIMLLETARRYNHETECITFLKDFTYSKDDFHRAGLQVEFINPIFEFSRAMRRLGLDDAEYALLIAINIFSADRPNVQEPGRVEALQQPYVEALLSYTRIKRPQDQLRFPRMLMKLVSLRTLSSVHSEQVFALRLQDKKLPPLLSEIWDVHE
Nature of the series: LXR Gal4 reporter transient transfection assay (M2H), Gal4β LBD. It is filed as cell-based. As to conditions: HEK293 cells; read-out: M2H Gal4β LBD activity range (EC50). An outline of the steps: as §1

Series [3] deals with T3, LXRβ full length (FL) (Homo sapiens, UniProt P55055, DUP175-175).
T3 construct: the full length (FL) proteins of LXRα (amino acids 1-447); NP005684; NP009052; expressed in transfected cells; host or cells: HEK293
T3 sequence (P55055 with tags, fused parts or gaps DUP175-175): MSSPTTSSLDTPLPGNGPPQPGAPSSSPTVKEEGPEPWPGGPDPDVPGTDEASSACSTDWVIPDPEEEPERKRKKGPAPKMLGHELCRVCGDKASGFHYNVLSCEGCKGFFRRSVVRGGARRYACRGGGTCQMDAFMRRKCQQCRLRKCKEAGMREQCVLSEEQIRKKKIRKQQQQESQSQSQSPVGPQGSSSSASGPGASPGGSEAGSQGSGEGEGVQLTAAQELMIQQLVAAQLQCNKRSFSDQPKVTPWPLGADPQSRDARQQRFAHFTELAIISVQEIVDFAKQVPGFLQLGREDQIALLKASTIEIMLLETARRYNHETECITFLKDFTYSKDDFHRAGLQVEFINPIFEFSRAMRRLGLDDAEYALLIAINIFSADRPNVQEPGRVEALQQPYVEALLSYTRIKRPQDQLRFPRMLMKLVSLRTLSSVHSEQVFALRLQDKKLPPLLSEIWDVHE
Description: LXR Gal4 reporter transient transfection assay (M2H), Gal4β FL. It is filed as cell-based. As to conditions: HEK293 cells; read-out: M2H Gal4β FL activity range (EC50). An outline of the steps:
as §1

A short description of series [4]: Pharmacokinetics in mice, blood and liver exposure via LC-MS. In kind it is in vivo. As to conditions: for target tissue liver reached (in words): mice, systemic exposure minimized; for liver/blood ratio, 4 h / blood exposure, 4 h / liver exposure, 4 h: Dose (mg) 20, C57BL/6J mice; for blood exposure, 4 h / liver exposure, 4 h: 4 h after administration. How it is done: The pharmacokinetics of different sulfonamides was assessed in mice after single dosing and oral and intraperitoneal administrations. Blood and liver exposure was measured via LC-MS.
The study design was as follows:
Animals: C57BL/6J (Janvier) males
Diet: standard rodent chow
Vehicle for i.p. injection: 0.5% HPMC (w:v) in water, injection volume: <5 mL/kg
Animal handling: animals were withdrawn from food at least 12 h before administration
Design: single dose oral and bid ip administration, n=3 animals per group
Sacrifice: at t=4 h after administration
Bioanalytics: LC-MS of liver and blood samples

On to `Cc1cc(C)c(S(=O)(=O)N(Cc2ccc(-c3cccc(CC(=O)O)c3)cc2)C(C)c2ccc(C(F)(F)F)o2)c(C)c1` (centres unmarked) [2/2], for which the pEC50 in series [1], in series [2] and in series [3] was greater than 7.00 in each case.
On to `Cc1cc(C)c(S(=O)(=O)N(Cc2ccc(-c3cccc(S(=O)(=O)C(C)(C)C(=O)O)c3)cc2)Cc2ccc(C(F)(F)F)o2)c(C)c1` [5/2], for which the pEC50 in series [1], in series [2] and in series [3] was 6.00 to 7.00 in each case.
In the case of `Cc1cc(C)c(S(=O)(=O)N(Cc2ccc(-c3cccc(C(C)(C)C(=O)O)c3)cc2)Cc2ccc(C(F)(F)F)o2)c(C)c1` [7/5], the pEC50 in series [1] is greater than 7.00. Also, in series [2], the pEC50 was greater than 7.00. Besides, in series [3], the pEC50 was greater than 7.00. In addition, in series [4], the “target tissue liver reached (in words)” value is reported as “effectively reached”. Further, in series [4] (po), the “liver/blood ratio, 4 h” value is recorded as “po: 18”; the “blood exposure, 4 h” value is on record as “po: 300 ng/mL”; the “liver exposure, 4 h” value is “po: 5398 ng/mL”.
As to `COc1cc(-c2cccc(C(C)(C)C(=O)O)c2)ccc1CN(Cc1ccc(C(F)(F)F)o1)S(=O)(=O)c1c(C)cc(C)cc1C` [10/4], the pEC50 in series [1], in series [2] and in series [3] was greater than 7.00 throughout. In addition, the “target tissue liver reached (in words)” value in series [4] is given as “effectively reached”. For the same molecule, the “liver/blood ratio, 4 h” value in series [4] (po) is recorded as “po: 11”. Further, the “blood exposure, 4 h” value in series [4] (po) is given as “po: 189 ng/mL”. In series [4] (po), the “liver exposure, 4 h” value is given as “po: 2136 ng/mL”.
With `Cc1cc(C)c(S(=O)(=O)N(Cc2ccc(C(F)(F)F)o2)Cc2ccc(-c3cccc(C(C)(C)C(=O)O)c3)cc2Cl)c(C)c1` [10/5], the pEC50 in series [1], in series [2] and in series [3] was greater than 7.00 in each case. In addition, the “target tissue liver reached (in words)” value in series [4] was “effectively reached”. For the same molecule, the “liver/blood ratio, 4 h” value in series [4] (po) is on record as “po: 21”. Also, the “blood exposure, 4 h” value in series [4] (po) is “po: 242 ng/mL”. Besides, the “liver exposure, 4 h” value in series [4] (po) is “po: 5120 ng/mL”.
Consider `Cc1ccc2ccccc2c1S(=O)(=O)N(Cc1ccc(-c2cccc(S(=O)(=O)CC(=O)O)c2)cc1)Cc1cccc(C(F)(F)F)c1` [11/19], for which the pEC50 in series [3] was 6.00 to 7.00. For the same molecule, the “target tissue liver reached (in words)” value in series [4] is “effectively reached”. Moreover, in series [4] (po), the “liver/blood ratio, 4 h” value is given as “po: 125”; the “blood exposure, 4 h” value was “po: 0.01 μM”; the “liver exposure, 4 h” value is listed as “po: 1.07 μM”.
In the case of `Cc1cc(C)c(S(=O)(=O)N(Cc2ccc(-c3cccc(CC(=O)O)c3)cc2)Cc2ccc(C(F)(F)F)o2)c(C)c1` [Example 2, 2-(4′-(((2,4,6-Trimethyl-N-((5-(trifluoromethyl)furan-2-yl)methyl)phenyl)sulfonamido)methyl)-[1,1′-biphenyl]-3-yl)acetic acid], the pEC50 was 6.00 to 7.00 in series [1], greater than 7.00 in series [2] and greater than 7.00 in series [3].
As for `Cc1cc(C)c(S(=O)(=O)N(Cc2ccc(-c3cccc(S(=O)(=O)CC(=O)O)c3)cc2)Cc2ccc(C(F)(F)F)o2)c(C)c1` [Example 5, 2-((4′-(((2,4,6-Trimethyl-N-((5-(trifluoromethyl)furan-2-yl)methyl)phenyl)sulfonamido)methyl)-[1,1′-biphenyl]-3-yl)sulfonyl)acetic acid], the pEC50 in series [3] is 6.00 to 7.00. Moreover, in series [4] (ip), the “liver/blood ratio, 4 h” value is on record as “ip: 27”; the “blood exposure, 4 h” value is “ip: 0.34 μM”; the “liver exposure, 4 h” value is on record as “ip: 9.3 μM”. Also, the “target tissue liver reached (in words)” value in series [4] was “effectively reached”. Besides, in series [4] (po), the “liver/blood ratio, 4 h” value was “po: 31”; the “blood exposure, 4 h” value is listed as “po: 0.15 μM”; the “liver exposure, 4 h” value is reported as “po: 4.6 μM”.
On to `Cc1ccc2ccccc2c1S(=O)(=O)N(Cc1ccc(-c2cccc(C(C)(C)C(=O)O)c2)cc1)Cc1ccc(C(F)(F)F)o1` [Example 24, 2-Methyl-2-(4′-(((2-methyl-N-((5-(trifluoromethyl)furan-2-yl)methyl)naphthalene)-1-sulfonamido)methyl)-[1,1′-biphenyl]-3-yl)propanoic acid], for which the pEC50 in series [1], in series [2] and in series [3] was greater than 7.00 each time. For the same molecule, in series [4], the “target tissue liver reached (in words)” value is recorded as “effectively reached”. In addition, the “liver/blood ratio, 4 h” value in series [4] (po) is “po: 25”. Besides, the “blood exposure, 4 h” value in series [4] (po) was “po: 231 ng/mL”. Also, the “liver exposure, 4 h” value in series [4] (po) is “po: 5882 ng/mL”.
For `Cc1cc(C)c(S(=O)(=O)N(Cc2ccc(-c3cc(F)c(CO)c(S(C)(=O)=O)c3)cc2)Cc2ccc(C(F)(F)F)o2)c(C)c1` [Example C3/2], the pEC50 in series [1], in series [2] and in series [3] was greater than 7.00 in each case. Further, the “liver/blood ratio, 4 h” value in series [4] (po) was “po: 0.56”. For the same molecule, the “blood exposure, 4 h” value in series [4] (po) is reported as “po: 115 ng/mL”. Also, the “liver exposure, 4 h” value in series [4] (po) was “po: 64 ng/mL”.

The term pEC50 denotes the negative decadic logarithm of the EC50, by convention in mol/L.
